Source: patent US20220226270A1, “VERY-LONG-CHAIN POLYUNSATURATED FATTY ACIDS, ELOVANOID HYDROXYLATED DERIVATIVES, AND METHODS OF USE” (Board of Supervisors of Louisiana State University and …, priority 2019, published 2022)

Assays:
ARPE-19 cells under UOS = assay: Western blot of pro-survival and pro-apoptotic proteins in ARPE-19 cells under UOS; format: cell-based, human; settings: for Iduna expression (VLC-PUFA): RPE cells under UOS (FIG. 7D); for SIRT1 expression (VLC-PUFA): RPE under UOS (FIG. 7C); for Bax protein / Bcl-2 protein / Bcl-xL protein / Bid protein / Bim protein: Western blot, UOS; for Prohibitin (type-1) expression (VLC-PUFA): concentration-dependent, 100 and 250 nM (FIG. 7J); for Iduna expression (ELV): 200 nM; for Sirtuin1 (SIRT1) expression (ELV): dose-dependent, 100-200 nM
Experimental: ARPE19 cells at 75-80% confluence (72 h growth in DMEM/F12+10% FBS) in 6-well plates were serum-starved for 8 h before exposure. The serum-starved cells were treated with TNF-α (Sigma-Aldrich, St. Louis, Mo.) (10 ng/ml) and H2O2 (600 μM) to induce oxidative stress and challenged with increasing concentrations (50-500 nM) of VLC-PUFA (C32:6n3 and C34:6n3) simultaneously with oxidative stress for 16 h (apoptosis) and 6 h (Western-blot) before detection of apoptosis and harvesting for protein analysis. In some experiments, DHA at a concentration of 100 nM and 15-LOX-1 inhibitor PD146176 at a concentration of 1 μM was added to treat the RPE cells under stress. Cell extracts were made and protein concentrations adjusted by Bio-Rad (Hercules, Calif.) protein reagent and used for Western blot analysis.
Analysis of Proteins: Bcl-2 family proteins, SIRT1 and Proinhibitin (type-1), and Iduna proteins were analyze by Western blot analysis. In brief, 20-25 μg equivalents of each cell extracts were subject to electrophoresis on a 4-12% gel (Promega) at 125 V for 2 h. The proteins were transferred to nitrocellulose membrane by I-blot transfer apparatus. The membranes were subjected to treatment with primary antibodies specific for Bcl-2, Bcl-xL, Bax, Bid, Bim, SIRT1 and Prohibitin (type-1) (Santa Cruz Biotechnology) and Iduna antibody (Neuro-Mab Lab, UCLA, Los Angeles, Calif.) overnight at 4° C. and probed for 45 mins with secondary antibody, goat anti-mouse Ig:horseradish peroxidase, and horseradish peroxidase-conjugated anti-biotin antibody, and then proteins were evaluated by using an ECL kit (Amersham).

[1] = system: Sprague-Dawley rats, middle cerebral artery occlusion (MCAo); assay: Experimental ischemic stroke, 2 h middle cerebral artery occlusion (MCAo); format: in vivo, rat; settings: for reduction of total lesion volume compared to CSF-treated group: T2WI on day 7, 5 μg/50 μl into right lateral ventricle 1 h after 2 h of MCAo; for IgG staining intensity compared with the CSF-treated group / IgG staining in the cortex: at 7 days; for IgG staining intensity compared with the CSF-treated group: ipsilateral hemisphere; for IgG immunoreactivity in cortex, subcortex and whole hemisphere (total): versus the vehicle group (FIG. 22B)
Experimental: Middle cerebral artery occlusion and cannula implantation into the right lateral ventricle: Male Sprague-Dawley rats (Charles River Lab., Wilmington, Mass.) weighing 280-340 g were fasted overnight but allowed free access to water. Atropine sulfate (0.5 mg/kg, i.p.) was injected 10 mins before anesthesia. Anesthesia was induced with 3% isoflurane in a mixture of 70% nitrous oxide and 30% oxygen. All rats were orally intubated and mechanically ventilated. During ventilation, the animals were paralyzed with pancuronium bromide (0.6 mg/kg, i.p.). The catheters were implanted into the right femoral artery and vein for the blood sampling and infusion of drug. Serial analyses of arterial blood gases, plasma glucose, arterial blood pressure and heart beating rate were conducted before and during surgical procedure. Rectal (CMA/150 Temperature Controller, CMA/Microdialysis AB, Stockholm, Sweden) and cranial (temporalis muscle; Omega Engineering, Stamford, Conn.) temperatures were closely monitored before, during and after MCAo. Rectal temperature and body weight were monitored daily until sacrifice.
Rats underwent 2 h of right middle cerebral artery occlusion (MCAo) by an intraluminal-filament. In brief, the right common carotid artery (CCA) bifurcation was exposed through a midline neck incision and the occipital artery branches of the external carotid artery were isolated, ligated and dissected. After careful isolation of the internal carotid artery (ICA), a 3-0 monofilament coated with poly-L-lysine was advanced through the ICA to the MCA until mild resistance was felt. The neck incision was closed with a silk suture and the animals were then allowed to recover. After 2 h of MCAo, rats were re-anesthetized with the same anesthetic combination. Temperature probes were re-inserted, and intraluminal sutures were carefully removed. The animals given free access to food and water for 7 days.
Thirty minutes after suture removal, a brain infusion cannula was implanted into the right lateral ventricle for treatment administration in each rat. Rats were anesthetized with 3% isoflurane and were secured to a stereotaxic apparatus with skull leveled between bregma and lambda. A sterile stainless steel cannula (5-mm long) was implanted into the lateral ventricle using the stereotaxic coordinates (0.2 mm caudal to bregma, 2 mm lateral to midline, and 5 mm below the dura). Cannulas were removed after treatment was completed.
Treatment: Elovanoids (ELV) as sodium salts (Na) or methyl esters (Me) were dissolved in artificial cerebral spinal fluid (CSF) and administered into right lateral ventricle 1 hour after 2 h of MCAo. The following ELVs were used: ELV-N32-Na, ELV-N32-Me, ELV-N34-Na and ELV-N34-Me (5 μg/50 μl) or CSF (50 μl). All treatments were administered by a researcher blinded to the treatment groups.
Neurological/Behavioral Tests: Behavioral tests were performed by an observer blinded to the treatment groups at 60 mins (during MCAo) and then on days 1, 2, 3 and 7 after MCAo. The battery consisted of two tests that have been used previously to evaluate various aspects of neurologic function: (1) the postural reflex test, to examine upper body posture while the animal is suspended by the tail; and (2) the forelimb placing test, to examine sensorimotor integration in forelimb placing responses to visual, tactile and proprioceptive stimuli. Neurological function was graded on a scale of 0-12 (normal score=0, maximal score=12).
Magnetic resonance imaging (MRI) acquisition and analysis of total lesion, core and penumbra volumes: High resolution ex vivo MRI was performed on 4% paraformaldehyde-fixed brains on day 7 using an 11.7T Bruker Advance 8.9 cm horizontal bore instrument equipped with an 89 mm (ID) receiver coil (Bruker Biospin, Billerica, Mass.). T2 weighted images (T2WI), diffusion weighted images (DWI), 3D volumes, and apparent diffusion coefficient (ADC) maps were collected. T2 and ADC maps were computed from T2WI and DWI, respectively. […]

Structure (SMILES): CC/C=C\C/C=C\C/C=C\C/C=C\C/C=C\C/C=C\CCCCCCCCCCCCC(=O)O [32:6n3, (14Z,17Z,20Z,23Z,26Z,29Z)-dotriaconta-14,17,20,23,26,29-hexaenoic acid]
- Iduna expression (VLC-PUFA) (ARPE-19 cells under UOS): upregulation
- SIRT1 expression (VLC-PUFA) (ARPE-19 cells under UOS): upregulation
- Bax protein (ARPE-19 cells under UOS): down regulated
- Bcl-2 protein (ARPE-19 cells under UOS): upregulate
- Bcl-xL protein (ARPE-19 cells under UOS): upregulate
- Bid protein (ARPE-19 cells under UOS): down regulated
- Bim protein (ARPE-19 cells under UOS): down regulated
- Prohibitin (type-1) expression (VLC-PUFA) (ARPE-19 cells under UOS): upregulation

Structure (SMILES): CC/C=C\C/C=C\C/C=C\C/C=C\C/C=C\C/C=C\CCCCCCCCCCCCCCC(=O)O [34:6n3, (16Z,19Z,22Z,25Z,28Z,31Z)-tetratriaconta-16,19,22,25,28,31-hexaenoic acid]
- Iduna expression (VLC-PUFA) (ARPE-19 cells under UOS): upregulation
- SIRT1 expression (VLC-PUFA) (ARPE-19 cells under UOS): upregulation
- Bax protein (ARPE-19 cells under UOS): down regulated
- Bcl-2 protein (ARPE-19 cells under UOS): upregulate
- Bcl-xL protein (ARPE-19 cells under UOS): upregulate
- Bid protein (ARPE-19 cells under UOS): down regulated
- Bim protein (ARPE-19 cells under UOS): down regulated
- Prohibitin (type-1) expression (VLC-PUFA) (ARPE-19 cells under UOS): upregulation

Structure (SMILES): CC/C=C\C[C@H](O)\C=C/C=C/C=C/[C@H](O)C/C=C\C/C=C\CCCCCCCCCCCCC(=O)OC [ELV-N32-Me, methyl (14Z,17Z,20R,21E,23E,25Z,27S,29Z)-20,27-dihydroxydotriaconta-14,17,21,23,25,29-hexaenoate]
- reduction of total lesion volume compared to CSF-treated group [1]: 56%
- IgG staining intensity compared with the CSF-treated group [1]: similar

Structure (SMILES): CC/C=C\C[C@H](O)\C=C/C=C/C=C/[C@H](O)C/C=C\C/C=C\CCCCCCCCCCCCC(=O)[O-].[Na+] [ELV-N32-Na, sodium (14Z,17Z,20R,21E,23E,25Z,27S,29Z)-20,27-dihydroxydotriaconta-14,17,21,23,25,29-hexaenoate]
- Iduna expression (ELV) (ARPE-19 cells under UOS): enhanced
- relative potency in upregulating SIRT1 (ARPE-19 cells under UOS; UOS RPE cells): more potent than ELV-N34-Na
- Bcl-2 protein (ARPE-19 cells under UOS): enhanced the abundance
- Bcl-xL protein (ARPE-19 cells under UOS): enhanced the abundance
- Sirtuin1 (SIRT1) expression (ELV) (ARPE-19 cells under UOS): upregulate
- reduction of total lesion volume compared to CSF-treated group [1]: 60%
- IgG staining intensity compared with the CSF-treated group [1]: similar

Structure (SMILES): CC/C=C\C[C@H](O)\C=C/C=C/C=C/[C@H](O)C/C=C\C/C=C\CCCCCCCCCCCCCCC(=O)OC [ELV-N34-Me, methyl (16Z,19Z,22R,23E,25E,27Z,29S,31Z)-22,29-dihydroxytetratriaconta-16,19,23,25,27,31-hexaenoate]
- reduction of total lesion volume compared to CSF-treated group [1]: 91%
- IgG staining in the cortex [1]: significantly less IgG staining
- IgG immunoreactivity in cortex, subcortex and whole hemisphere (total) [1]: significantly reduced

Structure (SMILES): CC/C=C\C[C@H](O)\C=C/C=C/C=C/[C@H](O)C/C=C\C/C=C\CCCCCCCCCCCCCCC(=O)[O-].[Na+] [ELV-N34-Na, sodium (16Z,19Z,22R,23E,25E,27Z,29S,31Z)-22,29-dihydroxytetratriaconta-16,19,23,25,27,31-hexaenoate]
- Iduna expression (ELV) (ARPE-19 cells under UOS): enhanced
- Bcl-2 protein (ARPE-19 cells under UOS): enhanced the abundance
- Bcl-xL protein (ARPE-19 cells under UOS): enhanced the abundance
- Sirtuin1 (SIRT1) expression (ELV) (ARPE-19 cells under UOS): upregulate
- reduction of total lesion volume compared to CSF-treated group [1]: 99%
- IgG staining in the cortex [1]: significantly less IgG staining
- IgG immunoreactivity in cortex, subcortex and whole hemisphere (total) [1]: significantly reduced
